PMC11979885, “Mechanistic Investigation into the Phase Separation Behavior of Soluplus in the Presence of Biorelevant Media” (Molecular Pharmaceutics, 2025)
In brackets after ≈: the same amount, converted by molar mass. Like-named read-outs stand apart in the source and are kept apart here.

Experiments:
Format in all cases: physicochemical
[1] = Equilibrium solubility of crystalline RO6897779 in FaSSIF-V1 with and without Soluplus
Procedure: The solubility of RO6897779 was determined in FaSSIF-V1 and in the presence of previously outlined Soluplus concentrations dissolved in FaSSIF-V1 to determine the apparent degree of supersaturation induced during solvent shift experiments. Samples were prepared by adding an excess amount of RO6897779 (≈5 mg) to 3 mL of the excipient solutions, or neat FaSSIF-V1 medium, and were stirred at 250 rpm at 37 °C (Mixdrive 15, 2MAG, München, Germany). Samples were equilibrated for 48 h. Solid–liquid separation was conducted by centrifugation at 11,500 g for 5 min using Ultrafree centrifugal units. The supernatant was immediately diluted with a 1:1 (v/v) mixture of acetonitrile and deionized water to fall into the linear region of the calibration curve during high-performance liquid chromatography (HPLC), as described under HPLC drug quantification below.
(§1) RO6897779 was quantified using reversed-phase HPLC. An Agilent 1200 series HPLC system (Agilent Technologies Inc., US) equipped with an Agilent Eclipse Plus C18 column (5 μm, 4.6 mm × 150 mm) was used for sample separation. Detection and quantification of RO6897779 were performed by using a variable wavelength detector set to 214 nm. The mobile phase consisted of (A) HPLC-grade deionized water and (B) and acetonitrile both containing 0.1% [v/v] formic acid. […] Data analysis was conducted using Agilent’s OpenLab CDS software Version 2.6.

[2] = Solvent shift supersaturation kinetics of RO6897779 in Soluplus solutions in FaSSIF-V1; details: for apparent degree of supersaturation (aDS) induced: nominal 1 mg mL^–1 drug, FaSSIF-V1, 37 °C
Procedure: Solvent shift experiments were conducted in the Pion microDISS Profiler to assess the supersaturation kinetics of RO6897779 in the presence of Soluplus dissolved in FaSSIF-V1. […] Supersaturation kinetics were assessed at D/P ratios of 10, 20, 30, and 40% corresponding to the polymer concentrations outlined previously. The polymer was dissolved in FaSSIF-V1 at RT and subsequently heated to 37 °C. A concentrated DMSO stock solution was prepared at a concentration of 50 mg mL^–1 RO6897779. From this stock solution, an aliquot of 400 μL was spiked into 19.6 mL of preheated solvent shift medium, so that a nominal concentration of 1 mg mL^–1 RO6897779 was obtained without exceeding DMSO concentrations of 2% [v/v], while assuming a negligible residual solvent influence on solubility.[40] The solutions were stirred at 250 rpm and the temperature was maintained at 37 °C and continuously monitored. At time points of 5, 15, 30, 60, 120, 180, and 240 min, 2 × 200 μL aliquots were withdrawn. […] Subsequently, the supernatant of the media was diluted appropriately with an acetonitrile–water mixture. An intermission of 30 min was introduced as a change in Soluplus phase behavior was expected once the sample reached RT. It was assumed that this intermission would lead to a difference in the sampled concentration of RO6897779.
as §1

[3] = DSC glass forming ability / crystallization tendency classification; details: classification according to Baird et al.
Procedure: The manufactured spray-dried dispersion as well as the neat crystalline drug was investigated in triplicate using DSC to detect the presence of crystalline material and to gain information about the glass transition temperature (Tg) of the materials. For this purpose, a DSC 1 Star system instrument from Mettler-Toledo AG (Greifensee, Switzerland) was used. The instrument was calibrated for temperature and heat flow using indium, and the analysis was performed with an air flow rate of 150 mL min^–1. Samples were weighed into 40 μL aluminum pans (Mettler-Toledo AG, Greifensee, CH), sealed with pierced aluminum lids, and placed into the DSC. The analysis of the spray-dried dispersion was carried out as a heating cycle which heated the sample from RT to 190 °C at 10 K min^–1, followed by cooling down to −50 °C at −20 K min^–1 and finally reheating to 190 °C at 10 K min^–1. The analysis of the neat crystalline drug was carried out according to Baird et al.,[36] to evaluate the glass forming ability of the drug. The second heating ramp was used to measure the Tg without the influence of evaporating moisture.

SMILES: O=C(OCc1ccc(OC(F)(F)F)cc1)N1C[C@@H]2CN(C(=O)c3ccc4[nH]nnc4c3)C[C@H]2C1 [RO6897779]
- solubility at 48 h ([1]; FaSSIF-V1, 37 °C, fassif, thermodynamic from solid, Form I, pH = 6.5 ± 0, read-out: solubility in FaSSIF-V1): 22.9 µg/mL (≈ 48.2 µM)
- solubility at 48 h ([1]; FaSSIF-V1 with Soluplus 1.50 mg mL^–1, aqueous with cosolvent or surfactant or cyclodextrin, thermodynamic from solid, FaSSIF-V1, Soluplus 1.50 mg mL^–1 (D/P 40%), 48 h, 37 °C, read-out: solubility): 69 µg/mL (≈ 145 µM)
- solubility at 48 h ([1]; FaSSIF-V1 with Soluplus 2.33 mg mL^–1, aqueous with cosolvent or surfactant or cyclodextrin, thermodynamic from solid, FaSSIF-V1, Soluplus 2.33 mg mL^–1 (D/P 30%), 48 h, 37 °C, read-out: solubility): 96.2 µg/mL (≈ 202 µM)
- solubility at 48 h ([1]; FaSSIF-V1 with Soluplus 4.00 mg mL^–1, aqueous with cosolvent or surfactant or cyclodextrin, thermodynamic from solid, FaSSIF-V1, Soluplus 4.00 mg mL^–1 (D/P 20%), 48 h, 37 °C, read-out: solubility): 130 µg/mL (≈ 274 µM)
- solubility at 48 h ([1]; FaSSIF-V1 with Soluplus 9.00 mg mL^–1, aqueous with cosolvent or surfactant or cyclodextrin, thermodynamic from solid, FaSSIF-V1, Soluplus 9.00 mg mL^–1 (D/P 10%), 48 h, 37 °C, read-out: solubility): 215 µg/mL (≈ 452 µM)
- solubility at 48 h ([1]; pH 6.5, thermodynamic from solid, neat FaSSIF-V1, Soluplus 0.00 mg mL^–1 (D/P 100%), 48 h, 37 °C, read-out: solubility): 22.9 µg/mL (≈ 48.2 µM)
- apparent degree of supersaturation (aDS) induced ([2]; D/P 10%): 4.65
- sampled drug concentration in solvent shift experiment ([2]; D/P 20%, FaSSIF-V1, after immediate centrifugation and after cooling to RT): 150–170 μg mL^–1
- apparent degree of supersaturation (aDS) induced ([2]; D/P 20%): 7.7
- apparent degree of supersaturation (aDS) induced ([2]; D/P 30%): 10.4
- apparent degree of supersaturation (aDS) induced ([2]; D/P 40%): 14.5
- crystallization tendency [3]: class III
